Laboratory results taken from US20210400967A1, “COMPOSITIONS COMPRISING PYRIDINE CARBOXYLATE HERBICIDES WITH GLYPHOSATE OR GLUFOSINATE” (Corteva Agriscience LLC, priority 2018, published 2021).

Columns and labels:
Assay type in all cases: in vivo
[1] = test system: Brassica napus (winter rape); experiment: Greenhouse postemergence herbicidal effect, winter rape (BRSNW); conditions: 20-22 d
From the text: (§1) Greenhouse Trial Methodology—Evaluation of Postemergence Herbicidal Effect
(§2) Seeds of the desired test plant species were planted in a 90:10% v/v (volume/volume) mixture of PRO-MIX® BX (Premier Tech Horticulture, Quakertown, Pa., USA) and PROFILE® GREENS GRADE™ (Profile Products LLC, Buffalo Grove, Ill., USA) planting mixture, which typically has a pH of 5.2 to 6.2 and an organic matter content of at least 50 percent, in plastic pots with a surface area of 103.2 square centimeters (cm^2). In some aspects, to ensure good germination and healthy plants, a fungicide treatment and/or other chemical or physical treatment was applied. The plants were grown for 7-36 days (d) in a greenhouse with an approximate 14-hour (h) photo-period which was maintained at about 23° C. during the day and 22° C. during the night. Nutrients and water were added on a regular basis and supplemental lighting was provided with overhead metal halide 1000-Watt lamps as necessary. The plants were employed for testing when they reached the second or third true leaf stage.
(§3) Emulsifiable concentrates of each of each pyridine carboxylate herbicide (Compound A or Compound B) were prepared at 100 grams acid equivalent per liter (g ae/L). The emulsifiable concentrates also included a safener, cloquintocet-mexyl, at 120 grams active ingredient per liter (g ai/L). An aliquot of each emulsifiable concentrate was placed in a 25 mL glass vial and diluted with an aqueous mixture of 1.25% (v/v) ACTIROB® B esterified rapeseed oil (Bayer Crop Science, Research Triangle Park, N.C., USA) or MSO® Concentrate with LECI-TECH® methylated soybean oil (Loveland Products, Loveland, Colo., USA) to obtain concentrated stock solutions at the highest application rate for each herbicide, based upon a 12 milliliter (mL) application volume at a rate of 187 liters per hectare (L/ha). The concentrated stock solutions were further diluted with an aqueous mixture of 1.25% v/v ACTIROB® B or MSO® Concentrate with LECI-TECH® to obtain stock solutions at reduced application rates for each herbicide. Spray solutions of the herbicide combinations (Compound A or Compound B plus glyphosate or glufosinate) were prepared by adding weighed amounts or aliquots of the glyphosate or glufosinate to the stock solutions of Compound A or Compound B to form 12-mL spray solutions in two-way combinations.
(§4) The spray solutions were applied to the plant material with an overhead Mandel track sprayer equipped with 8002E nozzles calibrated to deliver 187 L/ha over an application area of 0.503 square meters (m^2) at a spray height of 18 inches (43 centimeters (cm)) above the average plant canopy. Control plants were sprayed in the same manner with the solvent blank. All pyridine carboxylate herbicide (component a) application rates are given as “g ae/ha” and all glyphosate or glufosinate (component b) application rates are given as “g ai/ha.”
(§5) The treated plants and control plants were placed in a greenhouse as described above and watered by sub-irrigation to prevent wash-off of the test compounds. After 20-22 d, the condition of the test plants as compared with that of the control plants was determined visually and scored on a scale of 0 to 100 percent where 0 corresponds to no injury and 100 corresponds to complete kill.

[2] = test system: Polygonum convolvulus (wild buckwheat); experiment: Greenhouse postemergence herbicidal effect, wild buckwheat (POLCO); conditions: 20-22 d
From the text: as §1, §2, §3, §4, §5

[3] = test system: Sinapis arvensis (wild mustard); experiment: Greenhouse postemergence herbicidal effect, wild mustard (SINAR); conditions: 20-22 d
From the text: as §1, §2, §3, §4, §5

[4] = test system: Salsola kali (Russian thistle); experiment: Greenhouse postemergence herbicidal effect, Russian thistle (SASKR); conditions: 20-22 d
From the text: as §1, §2, §3, §4, §5

[5] = test system: Kochia scoparia (kochia); experiment: Greenhouse postemergence herbicidal effect, kochia (KCHSC); conditions: 20-22 d
From the text: as §1, §2, §3, §4, §5

[6] = test system: Chenopodium album L. (common lambsquarters); experiment: Greenhouse postemergence herbicidal effect, common lambsquarters (CHEAL); conditions: 20-22 d
From the text: as §1, §2, §3, §4, §5

[7] = test system: Amaranthus retroflexus (pigweed); experiment: Greenhouse postemergence herbicidal effect, pigweed (AMARE); conditions: 20-22 d
From the text: as §1, §2, §3, §4, §5

[8] = test system: Matricaria chamomilla (wild chamomile); experiment: Greenhouse postemergence herbicidal effect, wild chamomile (MATCH); conditions: 20-22 d
From the text: as §1, §2, §3, §4, §5

[9] = test system: Cirsium arvense (Canadian thistle); experiment: Greenhouse postemergence herbicidal effect, Canadian thistle (CIRAR); conditions: 20-22 d
From the text: as §1, §2, §3, §4, §5

[10] = test system: Triticum aestivum (spring wheat); experiment: Greenhouse postemergence phytotoxicity on crop, spring wheat (TRZAS); conditions: 20-22 d
From the text: as §1, §2, §3, §4, §5

[11] = test system: Hordeum vulgare (spring barley); experiment: Greenhouse postemergence phytotoxicity on crop, spring barley (HORVS); conditions: 20-22 d
From the text: as §1, §2, §3, §4, §5

[12] = test system: Brassica napus (spring rape); experiment: Greenhouse postemergence herbicidal effect, spring rape (BRSNN); conditions: Example 3; Glyphosate 210 g ai/ha alone; 20-22 d
From the text: as §1, §2, §3, §4, §5

[13] = test system: Setaria faberi (giant foxtail); experiment: Greenhouse postemergence herbicidal effect, giant foxtail (SETFA); conditions: Example 3; Glyphosate 210 g ai/ha alone; 20-22 d
From the text: as §1, §2, §3, §4, §5

[14] = Example 1, Glyphosate 210 g ai/ha alone
[15] = Example 2, Glyphosate 420 g ai/ha alone
[16] = Example 3, Glyphosate 210 g ai/ha alone

O=C(O)CNCP(=O)(O)O [Glyphosate, N-(phosphonomethyl)glycine]
% visual injury [1, 14]: 68% | % visual injury, Obs [1, 15]: 35% | % visual injury [2, 14]: 65% | % visual injury, Obs [2, 15]: 38% | % visual injury, Obs [2, 16]: 20% | % visual injury [3, 14]: 50% | % visual injury, Obs [3, 15]: 30% | % visual injury [4, 14]: 10% | % visual injury, Obs [4, 15]: 53% | % visual injury [5, 14]: 0% | % visual injury, Obs [5, 15]: 38% | % visual injury, Obs [5, 16]: 3% | % visual injury [6, 14]: 53% | % visual injury, Obs [6, 15]: 75% | % visual injury, Obs [6, 16]: 8% | % visual injury [7, 14]: 100% | % visual injury, Obs [7, 15]: 100% | % visual injury [8, 14]: 60% | % visual injury, Obs [8, 15]: 75% | % visual injury [9, 14]: 38% | % visual injury, Obs [9, 15]: 83% | % visual injury, Obs [9, 16]: 40% | % visual injury [10, 14]: 90% | % visual injury, Obs [10, 15]: 90% | % visual injury [11, 14]: 83% | % visual injury, Obs [11, 15]: 80% | % visual injury, Obs [12]: 0% | % visual injury, Obs [13]: 30%
